This is an account of results in patent US20070185095A1, “Fused heterocyclic compounds and their use as metabotropic glutamate receptor antagonists” (AstraZeneca AB, priority 2004, published 2007).

For orientation: IC50 means the concentration at which inhibition is half-maximal.

The assay addresses T1, human mGluR5d (Homo sapiens, UniProt P41594).
T1 construct: expressed in transfected cells
The experiment in a line: FLIPR assay of [Ca2+]i mobilization in cells expressing human mGluR5d (Group I receptor antagonist activity). It counts as cell-based. The conditions noted are these: antagonist block of agonist challenge. An excerpt: The pharmacological properties of the compounds of the invention can be analyzed using standard assays for functional activity. Examples of glutamate receptor assays are well known in the art as described in for example Aramori et al., Neuron 8:757 (1992), Tanabe et al., Neuron 8:169 (1992), Miller et al., J. Neuroscience 15: 6103 (1995), Balazs, et al., J. Neurochemistry 69:151 (1997). The methodology described in these publications is incorporated herein by reference. Conveniently, the compounds of the invention can be studied by means of an assay that measures the mobilization of intracellular calcium, [Ca^2+]i in cells expressing mGluR5. […]
FLIPR experiments were done using a laser setting of 0.800 W and a 0.4 second CCD camera shutter speed. […] After each addition of the compound, the fluorescence signal was sampled 50 times at 1 second intervals followed by 3 samples at 5 second intervals. Responses were measured as the peak height of the response within the sample period. […]
For FLIPR analysis, cells expressing human mGluR5d as described in WO97/05252 were seeded on collagen coated clear bottom 96-well plates with black sides and analysis of [Ca^2+]i mobilization was performed 24 h following seeding. […] After each addition the fluorescence signal was sampled 50 times at 1 second intervals followed by 3 samples at 5 second intervals. […]

T1 sequence (P41594 21-942 isoform P41594-3 limits assumed): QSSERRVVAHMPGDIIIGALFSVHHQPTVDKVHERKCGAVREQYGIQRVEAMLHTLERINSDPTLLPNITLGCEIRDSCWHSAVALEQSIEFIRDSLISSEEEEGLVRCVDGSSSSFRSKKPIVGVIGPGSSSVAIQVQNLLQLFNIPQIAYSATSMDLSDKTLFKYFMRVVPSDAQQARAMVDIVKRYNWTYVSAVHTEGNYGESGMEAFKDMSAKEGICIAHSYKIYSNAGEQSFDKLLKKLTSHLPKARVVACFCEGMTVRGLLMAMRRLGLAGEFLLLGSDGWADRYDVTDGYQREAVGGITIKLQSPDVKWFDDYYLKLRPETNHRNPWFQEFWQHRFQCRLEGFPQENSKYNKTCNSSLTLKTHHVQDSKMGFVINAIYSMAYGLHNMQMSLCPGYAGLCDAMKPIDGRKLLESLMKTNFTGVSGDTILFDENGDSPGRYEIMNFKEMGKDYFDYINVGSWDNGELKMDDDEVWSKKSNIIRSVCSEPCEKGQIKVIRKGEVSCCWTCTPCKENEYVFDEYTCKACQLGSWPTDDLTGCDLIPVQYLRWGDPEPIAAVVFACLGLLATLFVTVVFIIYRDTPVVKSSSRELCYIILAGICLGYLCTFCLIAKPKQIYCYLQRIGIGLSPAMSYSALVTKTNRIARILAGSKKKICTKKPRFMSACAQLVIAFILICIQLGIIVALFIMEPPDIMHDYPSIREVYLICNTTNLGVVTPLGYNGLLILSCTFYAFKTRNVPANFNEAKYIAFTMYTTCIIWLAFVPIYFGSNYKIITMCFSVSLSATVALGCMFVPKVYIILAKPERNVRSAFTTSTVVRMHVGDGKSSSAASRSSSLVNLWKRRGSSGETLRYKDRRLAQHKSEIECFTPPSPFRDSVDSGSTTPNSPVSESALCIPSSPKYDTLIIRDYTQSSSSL

`Clc1cccc(-c2nc(CC3CCn4c(-c5ccncc5)nnc43)no2)c1` (centres unmarked) [7-{[5-(3-chlorophenyl)-1,2,4-oxadiazol-3-yl]methyl}-3-pyridin-4-yl-6,7-dihydro-5H-pyrrolo[2,1-c][1,2,4]triazole] yielded an IC50 of 49 nM.

Molecule `CC(c1noc(-c2cccc(Cl)c2)n1)N1CCCCn2c(-c3ccncc3)nnc21` (centres unmarked) [9-{1-[5-(3-chlorophenyl)-1,2,4-oxadiazol-3-yl]ethyl}-3-pyridin-4-yl-6,7,8,9-tetrahydro-5H-[1,2,4]triazolo[4,3-a][1,3]diazepine] had an IC50 of 81 nM.
